Measured values taken from patent US10947216B2, “Amide compounds and method for making and using” (Rigel Pharmaceuticals, Inc., priority 2016, dated 2021).
Structures can show the parent of a compound that is named as a salt.

Test system: IL-23p19
Experiment: LPS Induced IL23p19 in THP-1 Cells (with IFNγ Primed) Assay
Type: cell-based, human
Conditions: Homo sapiens, THP-1, THP-1 cells, IFNγ (50 ng/mL) primed, 1 hour compound pre-incubation, LPS 1 ug/mL 18 hours, 10 pt; read-out: IL23-p19 ELISA, THP1-IFNy, LPS, 10 pt EC50
Description: LPS Induced IL23p19 in THP-1 Cells (with IFNγ Primed) Assay
Method THP-1 Cells Stimulation:
On day 1, 50K/well THP-1 cells were seeded and primed with IFNγ (50 ng/mL) in 384-well plates for about 18 hours in RPMI media with 10% FBS. […] 50 μL/well 2× compound was added to 50 μL/well THP-1 cells (with IFNγ primed) in duplicate in 384 well tissue culture plates. […] Day 3, after stimulation for 18 hours at 37° C., 5% CO2, the assay plate was centrifuged and 70 μL/well supernatant was harvested. IL-23p19 protein in 70 μL/well of supernatant was measured by sandwich ELISA, and 25 μl/well Cell Titer Glo reagent was added to the remaining cells to measure compound toxicity.
Human IL-23p19 Sandwich ELISA:
Maxisorp immuno ELISA plates were pre-coated with 25 μL/well of anti-IL-23p19 capture antibody (2.5 ug/mL) in PBS overnight at room temperature. After washing with 1×PBST, the plates were blocked using 100 μL/well of 1% BSA in PBS for 2 hours at room temperature. The plates were washed three times with 1×PBST and 70 μL/well supernatant were added. The plates were incubated at room temperature for 2 hours with shaking and washed three times with 1×PBST. 25 μL/well of biotin labeled anti-IL-12(p40/p70) detection antibody (100 ng/mL) in PBS with 1% BSA was added and the plates were incubated at room temperature for 2 hours with shaking. After washing three times with 1×PBST, 25 μL/well of streptavidin-HRP (1:200) in PBS with 1% BSA was added and the plates were incubated at room temperature for 20 minutes with shaking. The plates were washed three times with 1×PBST and 25 μL/well of Super Signal ELISA Pico Chemiluminescent Substrate were added. The plates were read with a luminometer, and the chemiluminescence values were entered into Athena (Rigel) for curve fitting, EC50 calculation, and database storage.

Row | EC50 [µM] | Compound
1 | 21.5 | Cn1cc(NC(=O)c2cccc(-c3cncc(F)c3)n2)c(-c2ccccn2)n1 [Compound I-3, 5′-fluoro-N-(1-methyl-3-(pyridin-2-yl)-1H-pyrazol-4-yl)-[2,3′-bipyridine]-6-carboxamide]
2 | 1900 | Cn1cc(NC(=O)c2cccc(-c3cncc(C#N)c3)n2)c(-c2ccccn2)n1 [Compound I-4, 5′-cyano-N-(1-methyl-3-(pyridin-2-yl)-1H-pyrazol-4-yl)-[2,3′-bipyridine]-6-carboxamide]
3 | 40.1 | Cn1cc(NC(=O)c2cccc(-c3cncnc3)n2)c(-c2ccccn2)n1 [Compound I-5, N-(1-methyl-3-(pyridin-2-yl)-1H-pyrazol-4-yl)-6-(pyrimidin-5-yl)picolinamide]
4 | 655 | Cn1cc(NC(=O)c2cccc(-c3ccc[nH]3)n2)c(-c2ccccn2)n1 [Compound I-10, N-(1-methyl-3-(pyridin-2-yl)-1H-pyrazol-4-yl)-6-(1H-pyrrol-2-yl)picolinamide]
5 | 1.52 | Cn1cc(NC(=O)c2cccc(-c3cncc(C(C)(C)O)c3)n2)c(-c2ccccn2)n1 [Compound I-14, 5′-(2-hydroxypropan-2-yl)-N-(1-methyl-3-(pyridin-2-yl)-1H-pyrazol-4-yl)-[2,3′-bipyridine]-6-carboxamide]
6 | 63.6 | Cc1cc(-c2cccc(C(=O)Nc3cn(C)nc3-c3ccccn3)n2)ccn1 [Compound I-15, 2′-methyl-N-(1-methyl-3-(pyridin-2-yl)-1H-pyrazol-4-yl)-[2,4′-bipyridine]-6-carboxamide]
7 | 58.3 | Cn1cc(NC(=O)c2cccc(-c3cncc(C(F)(F)F)c3)n2)c(-c2ccccn2)n1 [Compound I-17, N-(1-methyl-3-(pyridin-2-yl)-1H-pyrazol-4-yl)-5′-(trifluoromethyl)-[2,3′-bipyridine]-6-carboxamide]
8 | 128 | COc1ccc(-c2cccc(C(=O)Nc3cn(C)nc3-c3ccccn3)n2)cn1 [Compound I-20, 6′-methoxy-N-(1-methyl-3-(pyridin-2-yl)-1H-pyrazol-4-yl)-[2,3′-bipyridine]-6-carboxamide]
9 | 398 | COc1cc(-c2cccc(C(=O)Nc3cn(C)nc3-c3ccccn3)n2)ccn1 [Compound I-21, 2′-methoxy-N-(1-methyl-3-(pyridin-2-yl)-1H-pyrazol-4-yl)-[2,4′-bipyridine]-6-carboxamide]
10 | 101 | Cn1cc(NC(=O)c2cccc(-c3cncc(OCC(F)(F)F)c3)n2)c(-c2ccccn2)n1 [Compound I-24, N-(1-methyl-3-(pyridin-2-yl)-1H-pyrazol-4-yl)-5′-(2,2,2-trifluoroethoxy)-[2,3′-bipyridine]-6-carboxamide]
11 | 0.587 | Cn1cc(NC(=O)c2cccc(-c3cncc(N4CCOCC4)c3)n2)c(-c2ccccn2)n1 [Compound I-37, N-(1-methyl-3-(pyridin-2-yl)-1H-pyrazol-4-yl)-5′-morpholino-[2,3′-bipyridine]-6-carboxamide]
12 | 1.39 | Cn1cc(NC(=O)c2cccc(-c3cncc(S(C)(=O)=O)c3)n2)c(-c2ccccn2)n1 [Compound I-39, N-(1-methyl-3-(pyridin-2-yl)-1H-pyrazol-4-yl)-5′-(methylsulfonyl)-[2,3′-bipyridine]-6-carboxamide]
13 | 116 | Cn1cc(NC(=O)c2cccc(-c3ccnc(C(N)=O)c3)n2)c(-c2ccccn2)n1 [Compound I-41, N6-(1-methyl-3-(pyridin-2-yl)-1H-pyrazol-4-yl)-[2,4-bipyridine]-2′,6-dicarboxamide]
14 | 25.5 | Cn1cc(NC(=O)c2cccc(-c3ccnc(C#N)c3)n2)c(-c2ccccn2)n1 [Compound I-42, 2′-cyano-N-(1-methyl-3-(pyridin-2-yl)-1H-pyrazol-4-yl)-[2,4′-bipyridine]-6-carboxamide]
15 | 3.46 | Cn1cc(NC(=O)c2cccc(-c3cnc4cc[nH]c4c3)n2)c(-c2ccccn2)n1 [Compound I-45, N-(1-methyl-3-(pyridin-2-yl)-1H-pyrazol-4-yl)-6-(1H-pyrrolo[3,2-b]pyridin-6-yl)picolinamide]
16 | 3.5 | Cn1cc(NC(=O)c2cccc(-c3ccc4[nH]ccc4c3)n2)c(-c2ccccn2)n1 [Compound I-46, 6-(1H-indol-5-yl)-N-(1-methyl-3-(pyridin-2-yl)-1H-pyrazol-4-yl)picolinamide]

Row | EC50 [µM] | Compound
17 | 3.6 | Cn1cc(NC(=O)c2cccc(-c3ccc4cc[nH]c4c3)n2)c(-c2ccccn2)n1 [Compound I-47, 6-(1H-indol-6-yl)-N-(1-methyl-3-(pyridin-2-yl)-1H-pyrazol-4-yl)picolinamide]
18 | 72.1 | Cc1cccc(-c2cccc(C(=O)Nc3cn(C)nc3-c3ccccn3)n2)c1 [Compound I-49, N-(1-methyl-3-(pyridin-2-yl)-1H-pyrazol-4-yl)-6-(m-tolyl)picolinamide]
19 | 5.44 | Cc1ccc(-c2cccc(C(=O)Nc3cn(C)nc3-c3ccccn3)n2)cc1 [Compound I-50, N-(1-methyl-3-(pyridin-2-yl)-1H-pyrazol-4-yl)-6-(p-tolyl)picolinamide]
20 | 59.1 | COc1cccc(-c2cccc(C(=O)Nc3cn(C)nc3-c3ccccn3)n2)c1 [Compound I-51, 6-(3-methoxyphenyl)-N-(1-methyl-3-(pyridin-2-yl)-1H-pyrazol-4-yl)picolinamide]
21 | 5.27 | Cn1cc(NC(=O)c2cccc(-c3cccc(N)c3)n2)c(-c2ccccn2)n1 [Compound I-57, 6-(3-aminophenyl)-N-(1-methyl-3-(pyridin-2-yl)-1H-pyrazol-4-yl)picolinamide]
22 | 15.2 | CNc1cccc(-c2cccc(C(=O)Nc3cn(C)nc3-c3ccccn3)n2)c1 [Compound I-58, N-(1-methyl-3-(pyridin-2-yl)-1H-pyrazol-4-yl)-6-(3-(methylamino)phenyl)picolinamide]
23 | 14.8 | Cn1cc(NC(=O)c2cccc(-c3cccc(NS(C)(=O)=O)c3)n2)c(-c2ccccn2)n1 [Compound I-60, N-(1-methyl-3-(pyridin-2-yl)-1H-pyrazol-4-yl)-6-(3-(methylsulfonamido)phenyl)picolinamide]
24 | 22.3 | Cn1cc(NC(=O)c2cccc(C3=CCN(C(=O)OC(C)(C)C)CC3)n2)c(-c2ccccn2)n1 [Compound I-61, tert-butyl 6-((1-methyl-3-(pyridin-2-yl)-1H-pyrazol-4-yl)carbamoyl)-3′,6′-dihydro-[2,4′-bipyridine]-1′(2′H)-carboxylate]
25 | 26.6 | Cn1cc(NC(=O)c2cccc(C3CCNCC3)n2)c(-c2ccccn2)n1 [Compound I-63, N-(1-methyl-3-(pyridin-2-yl)-1H-pyrazol-4-yl)-6-(piperidin-4-yl)picolinamide]
26 | 13.3 | Cn1cc(NC(=O)c2cccc(C3=CCCN(C(=O)OC(C)(C)C)C3)n2)c(-c2ccccn2)n1 [Compound I-64, tert-butyl 6-((1-methyl-3-(pyridin-2-yl)-1H-pyrazol-4-yl)carbamoyl)-5′,6′-dihydro-[2,3′-bipyridine]-1′(2′H)-carboxylate]
27 | 2.21 | COc1ccc(-c2nn(C)cc2NC(=O)c2cccc(-c3cncc(OC(C)C)c3)n2)nc1 [Compound I-70, 5′-isopropoxy-N-(3-(5-methoxypyridin-2-yl)-1-methyl-1H-pyrazol-4-yl)-[2,3′-bipyridine]-6-carboxamide]
28 | 15.9 | Cc1cncc(-c2cccc(C(=O)Nc3cn(C)nc3N3CCCC3)n2)c1 [Compound I-75, 5′-methyl-N-(1-methyl-3-(pyrrolidin-1-yl)-1H-pyrazol-4-yl)-[2,3′-bipyridine]-6-carboxamide]
29 | 0.444 | Cc1cncc(-c2cccc(C(=O)Nc3cn(CCN4CCOCC4)nc3-c3ccccn3)n2)c1 [Compound I-84, 5′-methyl-N-(1-(2-morpholinoethyl)-3-(pyridin-2-yl)-1H-pyrazol-4-yl)-[2,3′-bipyridine]-6-carboxamide]
30 | 74.1 | CCN(CC)CCn1cc(NC(=O)c2cccc(-c3ccncc3)n2)c(-c2ccccn2)n1 [Compound I-104, N-(1-(2-(diethylamino)ethyl)-3-(pyridin-2-yl)-1H-pyrazol-4-yl)-[2,4′-bipyridine]-6-carboxamide]
31 | 4.94 | O=C(Nc1c[nH]nc1-c1ccccn1)c1cccc(-c2ccncc2)n1 [Compound I-106, N-(3-(pyridin-2-yl)-1H-pyrazol-4-yl)-[2,4′-bipyridine]-6-carboxamide formate]
32 | 3.58 | COCCn1cc(NC(=O)c2cccc(-c3ccncc3)n2)c(-c2ccccn2)n1 [Compound I-107, N-(1-(2-methoxyethyl)-3-(pyridin-2-yl)-1H-pyrazol-4-yl)-[2,4′-bipyridine]-6-carboxamide formate]

Row | Compound | EC50 [µM]
33 | Cn1cc(NC(=O)c2cccc(C3=CCNCC3)n2)c(-c2ccccn2)n1 [Compound I-62, N-(1-methyl-3-(pyridin-2-yl)-1H-pyrazol-4-yl)-1′,2′,3′,6′-tetrahydro-[2,4′-bipyridine]-6-carboxamide] | 28
